pIC50: −log10 of the molar value. Where two headings read alike, the source gives them in different places.
What was measured:
[1] = molecular target: bovine heart mitochondrial membranes (complex I) (Bos taurus, UniProt P03887+P03898+P17694+P42026); experiment: NADH:O2 oxidoreduction by bovine heart mitochondrial membranes (complexes I-III-IV); type: biochemical
Description: Complex I and mitochondrial membranes were prepared from Bos taurus (bovine) heart. Intact mitochondria were isolated from rat liver and mouse heart and liver. Membranes were prepared from mouse heart mitochondria by 5 s bursts of sonication at 4 °C and collected by centrifugation (75,000 × g, 1 h).
Assays were performed at 32 °C in a SpectraMax 96-well plate reader. NADH:decylubiquinone oxidoreduction by complex I at 0.5 μg mL^−1 was measured in 20 mM Tris-HCl (pH 7.2), 0.15 % soy bean asolectin (Avanti Polar Lipids), and 0.15 % 3-((3-cholamidopropyl)dimethylammonium)-1-propanesulfonate (CHAPS, Merck Chemicals Ltd), with 200 μM decylubiquinone and 200 μM NADH, and monitored using ε340–380(NADH) = 4.81 mM^−1 cm^−1 [23]. Catalysis was initiated by addition of NADH and maximal rates determined by linear regression. NADH:O2 oxidoreduction by membranes was measured similarly but using 5 μg mL^−1 membranes in 10 mM Tris-HCl (pH 7.4) and 250 mM sucrose using 200 μM NADH and supplemented with 0.15 mM horse heart cytochrome c (Sigma-Aldrich Ltd.). Succinate:O2 oxidoreduction was measured using 40 μg mL^−1 membranes in 5 mM succinate in 10 mM Tris-HCl (pH 7.4) as described previously. Control experiments included NaCl (to match the ionic strength) or DMSO, as appropriate.
Experimental values are reported as mean averages ± standard deviation (SD) of technical replicates for large sample sizes and mean averages ± standard error of the mean (SEM) of technical replicates for small sample sizes. Data were analyzed by the unpaired two-tailed Student’s t test. IC50 values were determined using the standard dose-effect relationship (activity (%) = 100 × IC50 / (IC50 + [inhibitor]^m) with the Hill Slope (m) set to unity for purified complex I) and are reported with 95 % confidence intervals.

HepG2 cells = experiment: Rotenone-sensitive oxygen consumption rate in intact HepG2 cells; type: cell-based, human; settings: for rotenone sensitive OCR after 6 hours of biguanide exposure, % control, average / rotenone sensitive OCR after 6 hours of biguanide exposure, average: HEPG2 cells, biguanide at IC50/10; for rotenone sensitive OCR after 6 hours of biguanide exposure, average: OCR normalized to OCR immediately prior to biguanide addition; for inhibition of rotenone-sensitive respiration (in words): intact HepG2 cells, biguanide at IC50/10, monitored for 6 h
Description: 143B (CRL-8303 from ATCC), HepG2 (85011430 from The Health Protection Agency), and MDBK (CCL-22 from ATCC) cells were grown on Dulbecco’s modified Eagle’s medium (DMEM) supplemented with 10 % fetal bovine serum (FBS, Thermo Fisher Scientific) at 37 °C in 5 % CO2. All cells were confirmed as negative for mycoplasma.
Oxygen consumption rates (OCRs) were measured using a Seahorse XF96 extracellular flux analyzer at 37 °C. For intact cell measurements, 1.4 × 10^4 143B, HepG2, or MDBK cells were plated (per well) in DMEM containing 10 % FBS into Seahorse Bioscience Inc. XF96 plates and incubated for ~12 h at 37 °C in 5 % CO2. Then, the medium was exchanged for assay buffer containing DMEM, 4.5 g L^−1 glucose, 1 mM pyruvate, 32 mM NaCl, 2 mM GlutaMAX, 15 mg L^−1 phenol red, and 20 mM HEPES (pH 7.4 at 37 °C) and the cells placed in a CO2-free incubator at 37 °C for 30 min. Basal oxygen consumption rates were established before the addition of biguanides at one-tenth of their IC50 (IC50/10), and followed for ~ 6 h before the addition of rotenone (2 μM).
Rotenone-sensitive OCRs were calculated by subtracting the rotenone-insensitive rates (determined at the end of the experiment). OCRs were normalized by dividing by the OCR recorded immediately prior to the addition of biguanide. For rate of uptake calculations, the OCRs at time points after biguanide addition were divided by the OCRs at the same time points in control experiments. Data from wells with failed port injections were excluded from the analyses. The respiratory control ratio (RCR) values (state III versus state IV respiration) were ~11 and ~6 for permeabilized MDBK and 143B cells, respectively.

AMPK-α (phospho-Thr172) = experiment: AMPK activation, western blot of phospho-AMPK-α in MDBK cells; type: cell-based, Bos taurus; settings: for p-alpha, average normalised to control: Averages of experiments 1-3, 18 hours; for p-alpha: band intensity
Description: MDBK cells were seeded at 1 × 10^6 cells per 6 cm dish in DMEM containing 10 % FBS. […] After 18 h cells were harvested by a rapid lysis procedure: cells were rinsed with PBS, then lysed using ice-cold buffer containing 50 mM HEPES, 1 mM EDTA, 10 % glycerol, 50 mM NaF, 5 mM sodium pyrophosphate, 1 % Triton-X100, 1 mM dithiothreitol (DTT), and a protease inhibitor cocktail (Roche). The cell lysate was centrifuged at 14,000 × g for 20 min at 4 °C and the protein concentration of the supernatant determined by bicinchoninic acid assay. The lysate was analyzed using Novex 3–12 % bis-Tris gels run in 3-(N-morpholino)propanesulfonic acid (MOPS) buffer (20 μg of protein per lane) followed by transfer to low fluorescence polyvinylidene fluoride membranes by wet transfer. Primary rabbit antibodies for AMPK-β (57C12), AMPK-α (phospho-Thr172) (40H9), and acetyl-coA carboxylase (phospho-Ser79) (Cell Signaling Technology) were incubated overnight with the membrane (1:1000 dilution) in Odyssey blocking buffer at 4 °C. A fluorescent secondary antibody was used (IRDYE800CW from LI-COR Biosciences, 1:20,000 dilution) with a LI-COR Odyssey imaging system.

[2] = log of concentration in mM; sample given as Bovine heart mitochondrial membranes; Prism variable slope fit, Bottom 0, Top 100
[3] = sample given as Bovine heart mitochondrial membranes; Prism log(inhibitor) vs. response variable slope fit (four parameters), Bottom 0, Top 100; read-out: IC50 (best fit value)
[4] = sample given as Bovine heart mitochondrial membranes; Prism variable slope fit, Bottom 0, Top 100
[5] = bovine heart mitochondrial membranes; inhibitor 0.05 mM; read-out: average % (rate, % of no-inhibitor control)
[6] = bovine heart mitochondrial membranes; inhibitor 0.25 mM; read-out: average % (rate, % of no-inhibitor control)
[7] = bovine heart mitochondrial membranes; inhibitor 0.50 mM; read-out: average % (rate, % of no-inhibitor control)

bovine heart mitochondrial membranes (complex I), sequence (P42026 38-216): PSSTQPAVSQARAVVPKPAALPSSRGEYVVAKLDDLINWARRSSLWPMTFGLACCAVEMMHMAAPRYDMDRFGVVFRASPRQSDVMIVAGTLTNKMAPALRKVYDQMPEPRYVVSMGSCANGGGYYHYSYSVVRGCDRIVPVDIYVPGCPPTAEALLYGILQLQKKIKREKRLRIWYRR
bovine heart mitochondrial membranes (complex I), sequence (P17694 34-463): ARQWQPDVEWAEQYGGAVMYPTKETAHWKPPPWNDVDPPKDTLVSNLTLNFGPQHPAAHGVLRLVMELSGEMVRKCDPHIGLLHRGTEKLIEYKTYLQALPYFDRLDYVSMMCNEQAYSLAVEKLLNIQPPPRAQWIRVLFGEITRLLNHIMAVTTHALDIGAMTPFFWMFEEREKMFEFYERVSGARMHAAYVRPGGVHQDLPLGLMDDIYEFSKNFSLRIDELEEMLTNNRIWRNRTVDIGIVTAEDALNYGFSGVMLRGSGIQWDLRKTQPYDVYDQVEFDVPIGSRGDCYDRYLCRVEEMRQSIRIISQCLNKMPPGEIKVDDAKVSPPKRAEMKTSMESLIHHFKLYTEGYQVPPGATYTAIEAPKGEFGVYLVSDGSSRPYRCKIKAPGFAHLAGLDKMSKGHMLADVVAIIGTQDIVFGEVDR
bovine heart mitochondrial membranes (complex I), sequence (P03887 whole entry): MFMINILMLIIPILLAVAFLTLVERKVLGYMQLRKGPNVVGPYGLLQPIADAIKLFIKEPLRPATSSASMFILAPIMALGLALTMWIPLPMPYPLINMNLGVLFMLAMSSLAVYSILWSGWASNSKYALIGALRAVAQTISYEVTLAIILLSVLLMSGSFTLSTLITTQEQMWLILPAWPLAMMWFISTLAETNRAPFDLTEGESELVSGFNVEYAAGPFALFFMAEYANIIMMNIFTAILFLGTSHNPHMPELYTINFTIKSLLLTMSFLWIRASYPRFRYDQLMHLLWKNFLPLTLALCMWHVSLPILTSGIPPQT
bovine heart mitochondrial membranes (complex I), sequence (P03898 whole entry): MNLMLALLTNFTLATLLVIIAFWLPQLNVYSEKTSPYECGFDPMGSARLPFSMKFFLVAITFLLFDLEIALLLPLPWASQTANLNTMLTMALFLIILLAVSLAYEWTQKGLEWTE

| Compound | LogIC50 (best fit value) [1, 2] | pIC50 [1, 3] | HillSlope (best fit value) [1, 4] | rotenone sensitive OCR after 6 hours of biguanide exposure, % control, average (HepG2 cells) [% control] | rotenone sensitive OCR after 6 hours of biguanide exposure, average (HepG2 cells) | inhibition of rotenone-sensitive respiration (in words) (HepG2 cells) | p-alpha, average normalised to control (AMPK-α (phospho-Thr172)) | p-alpha / AMPK beta (AMPK-α (phospho-Thr172); Experiment 1, 18 hours) | p-alpha / AMPK beta normalised to control (AMPK-α (phospho-Thr172); Experiment 1, 18 hours) | p-alpha (AMPK-α (phospho-Thr172); Experiment 1, 18 hours) | p-alpha / AMPK beta (AMPK-α (phospho-Thr172); Experiment 2, 18 hours) | p-alpha / AMPK beta normalised to control (AMPK-α (phospho-Thr172); Experiment 2, 18 hours) | p-alpha (AMPK-α (phospho-Thr172); Experiment 2, 18 hours) | p-alpha / AMPK beta (AMPK-α (phospho-Thr172); Experiment 3, 18 hours) | p-alpha / AMPK beta normalised to control (AMPK-α (phospho-Thr172); Experiment 3, 18 hours) | p-alpha (AMPK-α (phospho-Thr172); Experiment 3, 18 hours) | remaining activity at 50 µM [1, 5] [%] | remaining activity at 250 µM [1, 6] [%] | remaining activity at 500 µM [1, 7] [%] | also measured |
| --- | --- | --- | --- | --- | --- | --- | --- | --- | --- | --- | --- | --- | --- | --- | --- | --- | --- | --- | --- | --- |
| CC(C)N=C(N)N=C(N)N [compound 4, 1-(diaminomethylidene)-2-(propan-2-yl)guanidine] | 1.46 | 1.54 | -1.156 | 0.42 | 0.43 | inhibit respiration | 12.85 | 1.65 | 13.27 | 732 | 1.91 | 13.08 | 500 | 2.53 | 12.19 | 499 |  |  |  | remaining activity at 620 µM ([1]; bovine heart mitochondrial membranes; inhibitor 0.62 mM; read-out: average % (rate, % of no-inhibitor control)): 96.7%; remaining activity at 1560 µM ([1]; bovine heart mitochondrial membranes; inhibitor 1.56 mM; read-out: average % (rate, % of no-inhibitor control)): 95.7%; remaining activity at 3120 µM ([1]; bovine heart mitochondrial membranes; inhibitor 3.12 mM; read-out: average % (rate, % of no-inhibitor control)): 92.6%; remaining activity at 6250 µM ([1]; bovine heart mitochondrial membranes; inhibitor 6.25 mM; read-out: average % (rate, % of no-inhibitor control)): 84.6%; remaining activity at 12500 µM ([1]; bovine heart mitochondrial membranes; inhibitor 12.50 mM; read-out: average % (rate, % of no-inhibitor control)): 72.6%; remaining activity at 25000 µM ([1]; bovine heart mitochondrial membranes; inhibitor 25.00 mM; read-out: average % (rate, % of no-inhibitor control)): 56.6%; remaining activity at 50000 µM ([1]; bovine heart mitochondrial membranes; inhibitor 50.00 mM; read-out: average % (rate, % of no-inhibitor control)): 32.5%; estimated rate of uptake into mitochondria (HepG2 cells; HepG2 cells, 3 mM in the extracellular medium): > 1.5 mM/min |
| NC(N)=NC(N)=NCc1ccccc1 [compound 3, 2-benzyl-1-(diaminomethylidene)guanidine] | -0.01339 | 3.01 | -0.5756 | 1.26 | 1.29 | inhibit respiration | 10.88 | 1.27 | 10.17 | 594 | 1.33 | 9.10 | 402 | 2.78 | 13.38 | 628 | 88.7 | 69.2 | 55.6 | remaining activity at 120 µM ([1]; bovine heart mitochondrial membranes; inhibitor 0.12 mM; read-out: average % (rate, % of no-inhibitor control)): 76.2%; remaining activity at 1250 µM ([1]; bovine heart mitochondrial membranes; inhibitor 1.25 mM; read-out: average % (rate, % of no-inhibitor control)): 44.4%; remaining activity at 2500 µM ([1]; bovine heart mitochondrial membranes; inhibitor 2.50 mM; read-out: average % (rate, % of no-inhibitor control)): 37.2%; remaining activity at 5000 µM ([1]; bovine heart mitochondrial membranes; inhibitor 5.00 mM; read-out: average % (rate, % of no-inhibitor control)): 31.2% |
| [H]/N=C(\N/C(=N/[H])Nc1ccc(Cl)cc1)NC(C)C [proguanil, reference compound] | -1.788 |  | -1.025 | 93.06 | 95.98 |  | 1.33 | 0.15 | 1.20 | 71.3 | 0.19 | 1.32 | 68.2 | 0.30 | 1.47 | 59.7 | 24.9 | 6.98 | 7.97 | remaining activity at 5 µM ([1]; bovine heart mitochondrial membranes; inhibitor 0.005 mM; read-out: average % (rate, % of no-inhibitor control)): 76.5%; remaining activity at 12.5 µM ([1]; bovine heart mitochondrial membranes; inhibitor 0.0125 mM; read-out: average % (rate, % of no-inhibitor control)): 56.2%; remaining activity at 25 µM ([1]; bovine heart mitochondrial membranes; inhibitor 0.025 mM; read-out: average % (rate, % of no-inhibitor control)): 41.4%; remaining activity at 100 µM ([1]; bovine heart mitochondrial membranes; inhibitor 0.10 mM; read-out: average % (rate, % of no-inhibitor control)): 7.77%; pIC50 ([1]; read-out: IC50 (best fit value); sample given as Bovine heart mitochondrial membranes; Prism log(inhibitor) vs. response variable slope fit (four parameters), Bottom 0, Top 100): 4.79 |
| [H]/N=C(/N)N/C(=N/[H])NCCc1ccccc1 [phenformin, reference compound] |  |  |  | 1.73 | 1.79 |  | 3.64 | 0.44 | 3.54 | 203 | 0.63 | 4.29 | 234 | 0.64 | 3.08 | 154 |  |  |  | AMPK activation (in words) (AMPK-α (phospho-Thr172); 18-h treatment, IC50/10 biguanide concentrations): slightly lower activation |

Reference: paper PMC4977651, “Molecular features of biguanides required for targeting of mitochondrial respiratory complex I and activation of AMP-kinase” (BMC Biology, 2016)
